Assay results reported in US6440970B1, “Pharmaceutical compositions and methods for use” (Targacept, Inc., priority 2000, dated 2002).

Key:
CNS nicotinic receptors = test: Determination of binding to relevant receptor sites; settings: inhibition constant calculated from IC50 by the method of Cheng et al.
Procedure: Determination of Binding to Relevant Receptor Sites
Binding of the compounds to relevant receptor sites was determined in accordance with the techniques described in U.S. Pat. No. 5,597,919 to Dull et al. Inhibition constants (Ki values), reported in nM, were calculated from the IC50 values using the method of Cheng et al., Biochem, Pharmacol. 22:3099 (1973).

[1] = molecular target: muscle-type nicotinic acetylcholine receptors (Homo sapiens, UniProt P02708+P07510+P11230+Q07001); test: Determination of interaction with muscle receptors; type: cell-based; settings: at a concentration of 100 uM; percentage of maximal activation induced by (S)-(-)-nicotine
Sequence of muscle-type nicotinic acetylcholine receptors (P02708 whole entry): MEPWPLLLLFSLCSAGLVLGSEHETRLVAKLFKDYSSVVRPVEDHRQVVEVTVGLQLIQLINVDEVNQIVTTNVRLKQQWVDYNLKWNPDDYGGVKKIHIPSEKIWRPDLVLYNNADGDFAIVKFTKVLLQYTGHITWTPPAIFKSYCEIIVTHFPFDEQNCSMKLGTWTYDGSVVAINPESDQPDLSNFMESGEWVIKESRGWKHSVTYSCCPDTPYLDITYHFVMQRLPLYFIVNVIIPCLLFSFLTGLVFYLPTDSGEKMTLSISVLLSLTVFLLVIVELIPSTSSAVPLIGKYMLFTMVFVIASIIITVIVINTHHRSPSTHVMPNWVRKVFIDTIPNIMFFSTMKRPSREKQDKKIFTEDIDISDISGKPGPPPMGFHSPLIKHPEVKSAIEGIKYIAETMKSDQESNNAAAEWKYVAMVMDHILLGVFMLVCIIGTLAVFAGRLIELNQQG
Sequence of muscle-type nicotinic acetylcholine receptors (P11230 24-501): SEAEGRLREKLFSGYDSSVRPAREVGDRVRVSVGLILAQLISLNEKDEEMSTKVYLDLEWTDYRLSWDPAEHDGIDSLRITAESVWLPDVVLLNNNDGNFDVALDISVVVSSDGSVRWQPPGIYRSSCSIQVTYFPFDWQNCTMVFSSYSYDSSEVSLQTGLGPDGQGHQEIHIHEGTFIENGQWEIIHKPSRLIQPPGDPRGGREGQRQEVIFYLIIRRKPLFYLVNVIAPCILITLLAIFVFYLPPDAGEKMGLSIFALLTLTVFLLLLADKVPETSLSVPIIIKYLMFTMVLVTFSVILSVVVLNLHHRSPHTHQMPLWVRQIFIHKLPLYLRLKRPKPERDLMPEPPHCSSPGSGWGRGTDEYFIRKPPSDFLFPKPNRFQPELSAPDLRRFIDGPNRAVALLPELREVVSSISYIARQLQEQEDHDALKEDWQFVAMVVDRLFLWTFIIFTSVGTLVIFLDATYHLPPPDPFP
Sequence of muscle-type nicotinic acetylcholine receptors (P07510 23-517): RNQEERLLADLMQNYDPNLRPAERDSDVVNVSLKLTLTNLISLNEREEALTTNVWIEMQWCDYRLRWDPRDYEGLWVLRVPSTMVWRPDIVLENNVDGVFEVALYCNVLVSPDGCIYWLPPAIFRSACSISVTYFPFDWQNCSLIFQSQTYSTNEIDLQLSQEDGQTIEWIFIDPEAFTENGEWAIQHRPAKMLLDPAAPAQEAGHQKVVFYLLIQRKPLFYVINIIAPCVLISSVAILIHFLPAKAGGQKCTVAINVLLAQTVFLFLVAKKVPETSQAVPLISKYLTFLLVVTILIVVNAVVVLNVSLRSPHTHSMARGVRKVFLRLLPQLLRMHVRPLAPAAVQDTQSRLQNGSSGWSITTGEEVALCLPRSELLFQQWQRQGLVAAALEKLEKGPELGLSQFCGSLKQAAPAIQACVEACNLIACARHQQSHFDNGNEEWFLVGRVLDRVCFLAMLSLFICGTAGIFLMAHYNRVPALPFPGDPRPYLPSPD
Sequence of muscle-type nicotinic acetylcholine receptors (Q07001 22-517): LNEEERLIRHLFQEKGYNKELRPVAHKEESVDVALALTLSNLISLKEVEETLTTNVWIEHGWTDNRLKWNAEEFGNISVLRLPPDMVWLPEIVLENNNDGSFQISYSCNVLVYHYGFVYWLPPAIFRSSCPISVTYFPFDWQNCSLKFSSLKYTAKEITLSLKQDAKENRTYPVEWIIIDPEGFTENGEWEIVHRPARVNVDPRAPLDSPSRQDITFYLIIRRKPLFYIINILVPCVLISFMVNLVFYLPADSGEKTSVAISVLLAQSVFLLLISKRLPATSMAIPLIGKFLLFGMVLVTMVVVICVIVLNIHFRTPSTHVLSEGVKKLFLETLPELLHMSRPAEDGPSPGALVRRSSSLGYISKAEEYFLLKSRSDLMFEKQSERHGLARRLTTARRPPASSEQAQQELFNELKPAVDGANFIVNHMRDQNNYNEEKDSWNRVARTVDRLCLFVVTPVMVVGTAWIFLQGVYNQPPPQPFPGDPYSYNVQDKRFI
Procedure: Determination of Interaction with Muscle Receptors
(§1) The determination of the interaction of the compounds with muscle receptors was carried out in accordance with the techniques described in U.S. Pat. No. 5,597,919 to Dull et al. The maximal activation for individual compounds (Emax) was determined as a percentage of the maximal activation induced by (S)-(−)-nicotine. Reported Emax values represent the amount released relative to (S)-(−)-nicotine on a percentage basis.

[2] = system: ganglionic-type nicotinic acetylcholine receptors; test: Determination of interaction with ganglion receptors; type: cell-based; settings: at a concentration of 100 uM; percentage of maximal activation induced by (S)-(-)-nicotine
Procedure: Determination of Interaction with Ganglion Receptors
as §1, with “ganglionic” for “muscle”

Row | Compound | Ki (CNS nicotinic receptors) [nM] | Emax at muscle-type receptors [1] [%] | Emax at ganglionic-type receptors [2] [%]
1 | Brc1cncc(N2C[C@@H]3C[C@H]2CN3)c1 [Sample No. 1, (1S,4S)-(5-bromo-3-pyridyl)-2,5-diazabicyclo[2.2.1]heptane] | 56 | 0 | 5
2 | (1S,4S)-(5-(4-methoxyphenoxy)-3-pyridyl)-2,5-diazabicyclo[2.2.1]heptane hemigalactarate [Sample No. 2] |  | 12 | 11
3 | (1S,4S)-(5-pyrimidinyl)-2,5-diazabicyclo[2.2.1]heptane hemigalactarate [Sample No. 3] |  | 100 | 11
4 | (1S,4S)-(6-chloro-3-pyridazinyl)-2,5-diazabicyclo[2.2.1]heptane hemigalactarate [Sample No. 4] |  | 0 | 28
